Experimental data: US8338565B2, “Macrocyclic compounds for inhibition of tumor necrosis factor alpha” (Ensemble Therapeutics Corporation, priority 2008, dated 2012)
Read-outs that look alike come from different tables or passages of the source. Numbered stars: 1 amine (or outer) side, 2 acyl side, 3 side chain; on linkers, the order of the positions; unused ones are H or OH. Bridge positions count the residues as written; N and C are the ends. Square brackets hold non-standard residues; d marks the D form. Peptide text beside a SMILES is read from it. * marks the point of attachment. Bip = N[C@@H](Cc1ccc(-c2ccccc2)cc1)C(=O)O; dBip = N[C@H](Cc1ccc(-c2ccccc2)cc1)C(=O)O; dPhe(4-NH2) = Nc1ccc(C[C@@H](N)C(=O)O)cc1; Phe(4-NH2) = Nc1ccc(C[C@H](N)C(=O)O)cc1; d(hPhe) = N[C@H](CCc1ccccc1)C(=O)O; 2Thi = N[C@@H](Cc1cccs1)C(=O)O; d2Thi = N[C@H](Cc1cccs1)C(=O)O; Suc = O=C(CCC(=O)[*:2])[*:1]; Nphe = O=C(O)CNCc1ccccc1; Boc = CC(C)(C)OC(=O)*; GABA = NCCCC(=O)O

Target: T1, TNFα / TNFα receptor (TNFα R1/Fc) (Homo sapiens, UniProt P01375)
T1 construct: purchased R&D Systems
T1 sequence (P01375 77-233 limits assumed, species assumed): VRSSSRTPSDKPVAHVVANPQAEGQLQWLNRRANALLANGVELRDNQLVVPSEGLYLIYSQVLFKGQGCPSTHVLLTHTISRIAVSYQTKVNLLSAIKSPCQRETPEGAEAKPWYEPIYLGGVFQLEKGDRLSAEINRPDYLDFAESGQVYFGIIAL
Assay: Inhibition of binding of TNFα to the TNFα receptor (plate ELISA competition)
Settings: Table 2
In short: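 Plates were coated with TNFα at 15 nM. Test compound and 8.33 nM receptor-Fc (PBST, 2% DMSO) were first mixed in solution for 30 min at room temperature, then transferred to the plates for another 30 min. Competition was read by absorbance at 450 nm after HRP anti-human IgG Fc detection with TMB.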

[1] = read-out: Activity (IC50, inhibition of TNFα binding to TNFα R1/Fc)

Row | IC50 [1] | Structure (SMILES) | IC50 (Activity (IC50, inhibition of TNFα binding to TNFα R1/Fc))
1 | 10 to 30 µM | O=C(O)C[C@H](Cc1ccccc1)NC(=O)[C@@H]1Cc2ccc(cc2)OCC(=O)N[C@@H](Cc2cccs2)C(=O)N[C@H](Cc2ccc(-c3ccccc3)cc2)C(=O)N[C@@H](CCc2ccccc2)C(=O)N1 [Compound 485] | 
2 |  | O=C1COc2ccc(cc2)C[C@@H](C(=O)N[C@@H](CO)C(=O)O)NC(=O)[C@H](CCc2ccccc2)NC(=O)[C@@H](Cc2ccc(-c3ccccc3)cc2)NC(=O)[C@H](Cc2cccs2)N1 [Compound 486] | < 10 µM
3 | 10 to 30 µM | CC(C)[C@H](NC(=O)[C@@H]1Cc2ccc(cc2)OCC(=O)N[C@@H](Cc2cccs2)C(=O)N[C@H](Cc2ccc(-c3ccccc3)cc2)C(=O)N[C@@H](CCc2ccccc2)C(=O)N1)C(=O)O [Compound 487] | 
4 | > 100 µM | NC(=O)C[C@@H]1NC(=O)COc2ccc(cc2)C[C@@H](C(=O)O)NC(=O)[C@H](Cc2ccccc2)NC(=O)[C@@H](Cc2ccc(-c3ccccc3)cc2)NC1=O [Compound 488] | 
5 | > 100 µM | CC(C)(C)Oc1ccc(C[C@@H]2NC(=O)COc3ccc(cc3)C[C@@H](C(=O)O)NC(=O)[C@H](Cc3ccccc3)NC(=O)[C@H](Cc3ccc(-c4ccccc4)cc3)NC2=O)cc1 [Compound 489] | 
6 | > 100 µM | CC(=O)NCCCC[C@@H]1NC(=O)COc2ccc(cc2)C[C@@H](C(=O)O)NC(=O)[C@H](Cc2ccccc2)NC(=O)[C@H](Cc2ccc(-c3ccccc3)cc2)NC1=O [Compound 490] | 
7 | > 100 µM | O=C1COc2ccc(cc2)C[C@@H](C(=O)O)NC(=O)[C@H](Cc2ccccc2)NC(=O)[C@H](Cc2ccc(-c3ccccc3)cc2)NC(=O)[C@H](Cc2ccc(OCc3ccccc3)cc2)N1 [Compound 491] | 
8 | > 100 µM | O=C1CCC(=O)N[C@@H](Cc2cccs2)C(=O)N[C@H](Cc2ccc(-c3ccccc3)cc2)C(=O)N[C@H](Cc2ccccc2)C(=O)N[C@H](C(=O)O)Cc2ccc(cc2)N1 [Compound 494] ([2Thi][dBip][dF][Phe(4-NH2)]-OH; linker N-4 via Suc) | 
9 | > 100 µM | O=C1CCC(=O)N[C@@H](Cc2cccs2)C(=O)N[C@@H](Cc2ccc(-c3ccccc3)cc2)C(=O)N[C@@H](Cc2ccccc2)C(=O)N[C@H](C(=O)O)Cc2ccc(cc2)N1 [Compound 495] ([2Thi][Bip]F[Phe(4-NH2)]-OH; linker N-4 via Suc) | 
10 | > 100 µM | O=C1CCC(=O)N[C@H](Cc2cccs2)C(=O)N[C@H](Cc2ccc(-c3ccccc3)cc2)C(=O)N[C@@H](Cc2ccccc2)C(=O)N[C@H](C(=O)O)Cc2ccc(cc2)N1 [Compound 496] ([d2Thi][dBip]F[Phe(4-NH2)]-OH; linker N-4 via Suc) | 
11 | > 100 µM | O=C1CCC(=O)N[C@H](Cc2cccs2)C(=O)N[C@@H](Cc2ccc(-c3ccccc3)cc2)C(=O)N[C@@H](Cc2ccccc2)C(=O)N[C@@H](C(=O)O)Cc2ccc(cc2)N1 [Compound 497] ([d2Thi][Bip]F[dPhe(4-NH2)]-OH; linker N-4 via Suc) | 
12 | > 100 µM | O=C1CCC(=O)N[C@H](Cc2cccs2)C(=O)N[C@H](Cc2ccc(-c3ccccc3)cc2)C(=O)N[C@H](Cc2ccccc2)C(=O)N[C@@H](C(=O)O)Cc2ccc(cc2)N1 [Compound 498] ([d2Thi][dBip][dF][dPhe(4-NH2)]-OH; linker N-4 via Suc) | 
13 | > 100 µM | O=C1CCC(=O)N[C@@H](Cc2cccs2)C(=O)N[C@@H](Cc2ccc(-c3ccccc3)cc2)C(=O)N[C@H](Cc2ccccc2)C(=O)N[C@@H](C(=O)O)Cc2ccc(cc2)N1 [Compound 499] ([2Thi][Bip][dF][dPhe(4-NH2)]-OH; linker N-4 via Suc) | 
14 | > 100 µM | O=C1CCC(=O)N[C@@H](Cc2cccs2)C(=O)N[C@H](Cc2ccc(-c3ccccc3)cc2)C(=O)N[C@H](Cc2ccccc2)C(=O)N[C@@H](C(=O)O)Cc2ccc(cc2)N1 [Compound 501] ([2Thi][dBip][dF][dPhe(4-NH2)]-OH; linker N-4 via Suc) | 
15 | > 100 µM | O=C1CCC(=O)N[C@@H](Cc2cccs2)C(=O)N[C@@H](Cc2ccc(-c3ccccc3)cc2)C(=O)N[C@@H](Cc2ccccc2)C(=O)N[C@@H](C(=O)O)Cc2ccc(cc2)N1 [Compound 502] ([2Thi][Bip]F[dPhe(4-NH2)]-OH; linker N-4 via Suc) | 
16 | > 100 µM | O=C1CCC(=O)N[C@H](Cc2cccs2)C(=O)N[C@H](Cc2ccc(-c3ccccc3)cc2)C(=O)N[C@@H](Cc2ccccc2)C(=O)N[C@@H](C(=O)O)Cc2ccc(cc2)N1 [Compound 503] ([d2Thi][dBip]F[dPhe(4-NH2)]-OH; linker N-4 via Suc) | 
17 | < 10 µM | O=C(O)CN(Cc1ccccc1)C(=O)[C@@H]1Cc2ccc(cc2)NC(=O)CCC(=O)N[C@H](CCc2ccccc2)C(=O)N[C@@H](Cc2ccc(-c3ccccc3)cc2)C(=O)N[C@H](Cc2ccccc2)C(=O)N1 [Compound 504] ([d(hPhe)][Bip][dF][Phe(4-NH2)][Nphe]-OH; linker N-4 via Suc) | 
18 | 10 to 30 µM | Nc1ccc(C[C@H](NC(=O)[C@@H]2Cc3ccc(cc3)NC(=O)CCC(=O)N[C@H](CCc3ccccc3)C(=O)N[C@@H](Cc3ccc(-c4ccccc4)cc3)C(=O)N[C@H](Cc3ccccc3)C(=O)N2)C(=O)O)cc1 [Compound 505] ([d(hPhe)][Bip][dF][Phe(4-NH2)][Phe(4-NH2)]-OH; linker N-4 via Suc) | 
19 | 10 to 30 µM | O=C1COc2ccc(cc2)C[C@@H](C(=O)O)NC(=O)[C@H](CCc2ccccc2)NC(=O)[C@@H](Cc2ccc(-c3ccccc3)cc2)NC(=O)C(c2ccccc2)N1 (stereo partly drawn) [Compound 507] | 
20 | < 10 µM | CC(=O)NCCCC[C@@H]1NC(=O)COc2ccc(cc2)C[C@@H](C(=O)O)NC(=O)[C@H](CCc2ccccc2)NC(=O)[C@@H](Cc2ccc(-c3ccccc3)cc2)NC1=O [Compound 508] | 

Row | IC50 [1] | Structure (SMILES) | IC50 (Activity (IC50, inhibition of TNFα binding to TNFα R1/Fc))
21 | < 10 µM | O=C1COc2ccc(cc2)C[C@@H](C(=O)O)NC(=O)[C@H](CCc2ccccc2)NC(=O)[C@@H](Cc2ccc(-c3ccccc3)cc2)NC(=O)[C@H](CCCc2ccccc2)N1 [Compound 509] | 
22 | < 10 µM | O=C1COc2ccc(cc2)C[C@@H](C(=O)O)NC(=O)[C@H](CCc2ccccc2)NC(=O)[C@@H](Cc2ccc(-c3ccccc3)cc2)NC(=O)[C@H](Cc2ccc(-c3ccccc3)cc2)N1 [Compound 510] | 
23 | < 10 µM | O=C1COc2ccc(cc2)C[C@@H](C(=O)O)NC(=O)[C@H](CCc2ccccc2)NC(=O)[C@@H](Cc2ccc(-c3ccccc3)cc2)NC(=O)[C@H](Cc2ccccc2)N1 [Compound 511] | 
24 | < 10 µM | O=C1COc2ccc(cc2)C[C@@H](C(=O)O)NC(=O)[C@H](CCc2ccccc2)NC(=O)[C@@H](Cc2ccc(-c3ccccc3)cc2)NC(=O)[C@H](Cc2ccc([N+](=O)[O-])cc2)N1 [Compound 512] | 
25 | < 10 µM | O=C1COc2ccc(cc2)C[C@@H](C(=O)O)NC(=O)[C@H](CCc2ccccc2)NC(=O)[C@@H](Cc2ccc(-c3ccccc3)cc2)NC(=O)[C@H](CCc2ccccc2)N1 [Compound 513] | 
26 | < 10 µM | CC(C)(C)Oc1ccc(C[C@@H]2NC(=O)COc3ccc(cc3)C[C@@H](C(=O)O)NC(=O)[C@H](CCc3ccccc3)NC(=O)[C@@H](Cc3ccc(-c4ccccc4)cc3)NC2=O)cc1 [Compound 514] | 
27 | 10 to 30 µM | CC(C)(C)c1ccc(C[C@@H]2NC(=O)COc3ccc(cc3)C[C@@H](C(=O)O)NC(=O)[C@H](CCc3ccccc3)NC(=O)[C@@H](Cc3ccc(-c4ccccc4)cc3)NC2=O)cc1 [Compound 515] | 
28 | 30 to 100 µM | CC(C)(C)OC(=O)NCCCC(=O)N[C@H]1CC(=O)Nc2ccc(cc2)C[C@@H](C(=O)O)NC(=O)[C@@H](Cc2ccccc2)NC(=O)[C@H](Cc2ccc(-c3ccccc3)cc2)NC(=O)[C@@H](Cc2cccs2)NC1=O [Compound 516] ({Boc-GABA}-D[d2Thi][Bip][dF][Phe(4-NH2)]-OH; lactam 1-5) | 
29 | 10 to 30 µM | O=C1COc2ccc(cc2)C[C@@H](C(=O)O)NC(=O)[C@@H](CCc2ccccc2)NC(=O)[C@H](Cc2ccc(-c3ccccc3)cc2)NC(=O)C(c2ccc(Br)cc2)N1 (stereo partly drawn) [Compound 517] | 
30 | < 10 µM | O=C1COc2ccc(cc2)C[C@@H](C(=O)O)NC(=O)[C@@H](CCc2ccccc2)NC(=O)[C@H](Cc2ccc(-c3ccccc3)cc2)NC(=O)[C@@H](Cc2ccc(-c3ccncc3)cc2)N1 [Compound 518] | 
31 | 10 to 30 µM | O=C1COc2ccc(cc2)C[C@@H](C(=O)O)NC(=O)[C@@H](CCc2ccccc2)NC(=O)[C@H](Cc2ccc(-c3ccccc3)cc2)NC(=O)[C@@H](Cc2ccc(F)cc2)N1 [Compound 519] | 
32 | < 10 µM | O=C1COc2ccc(cc2)C[C@@H](C(=O)O)NC(=O)[C@@H](CCc2ccccc2)NC(=O)[C@H](Cc2ccc(-c3ccccc3)cc2)NC(=O)[C@@H](Cc2cccc(C(F)(F)F)c2)N1 [Compound 520] | 
33 | > 100 µM | O=C1COc2ccc(cc2)C[C@@H](C(=O)O)NC(=O)[C@@H](CCc2ccccc2)NC(=O)[C@H](Cc2ccc(-c3ccccc3)cc2)NC(=O)[C@@H](Cc2ccc(O)cc2)N1 [Compound 521] | 
34 | > 100 µM | COc1ccc(C[C@H]2NC(=O)COc3ccc(cc3)C[C@@H](C(=O)O)NC(=O)[C@@H](CCc3ccccc3)NC(=O)[C@H](Cc3ccc(-c4ccccc4)cc3)NC2=O)cc1 [Compound 522] | 
35 | > 100 µM | O=C1COc2ccc(cc2)C[C@@H](C(=O)O)NC(=O)[C@@H](CCc2ccccc2)NC(=O)[C@H](Cc2ccc(-c3ccccc3)cc2)NC(=O)[C@@H](Cc2ccncc2)N1 [Compound 523] | 
36 | 10 to 30 µM | O=C1COc2ccc(cc2)C[C@@H](C(=O)O)NC(=O)[C@@H](CCc2ccccc2)NC(=O)[C@H](Cc2ccc(-c3ccccc3)cc2)NC(=O)[C@@H](Cc2ccc(F)c(F)c2)N1 [Compound 524] | 
37 | < 10 µM | O=C1COc2ccc(cc2)C[C@@H](C(=O)O)NC(=O)[C@@H](CCc2ccccc2)NC(=O)C(c2ccc(Br)cc2)NC(=O)[C@@H](Cc2cccs2)N1 (stereo partly drawn) [Compound 525] | 
38 | > 100 µM | O=C1COc2ccc(cc2)C[C@@H](C(=O)O)NC(=O)[C@@H](CCc2ccccc2)NC(=O)[C@H](Cc2ccc(-c3ccc(C(=O)OCc4ccccc4)cc3)cc2)NC(=O)[C@@H](Cc2cccs2)N1 [Compound 526] | 
39 | > 100 µM | O=C1COc2ccc(cc2)C[C@@H](C(=O)O)NC(=O)[C@@H](CCc2ccccc2)NC(=O)[C@H](Cc2ccc(F)cc2)NC(=O)[C@@H](Cc2cccs2)N1 [Compound 527] | 
